Laboratory results from patent US9000045B2, “CETP activity inhibitors” (Japan Tobacco Inc., priority 1997, dated 2015).
pIC50: −log10 of the molar value.

Columns and labels:
CETP [1] = biological target: T1, CETP (Homo sapiens, UniProt P11597); assay: Ex vivo CETP activity inhibitory effect of plasma from transgenic mice; set-up: from tissue; host or cells: plasma of transgenic mice carrying the human CETP gene; settings: mouse, po, p.o., 6 hours after administration, transgenic mice with human CETP gene, read-out: CETP activity inhibitory rate in plasma from transgenic mouse
T1 sequence (P11597 18-493): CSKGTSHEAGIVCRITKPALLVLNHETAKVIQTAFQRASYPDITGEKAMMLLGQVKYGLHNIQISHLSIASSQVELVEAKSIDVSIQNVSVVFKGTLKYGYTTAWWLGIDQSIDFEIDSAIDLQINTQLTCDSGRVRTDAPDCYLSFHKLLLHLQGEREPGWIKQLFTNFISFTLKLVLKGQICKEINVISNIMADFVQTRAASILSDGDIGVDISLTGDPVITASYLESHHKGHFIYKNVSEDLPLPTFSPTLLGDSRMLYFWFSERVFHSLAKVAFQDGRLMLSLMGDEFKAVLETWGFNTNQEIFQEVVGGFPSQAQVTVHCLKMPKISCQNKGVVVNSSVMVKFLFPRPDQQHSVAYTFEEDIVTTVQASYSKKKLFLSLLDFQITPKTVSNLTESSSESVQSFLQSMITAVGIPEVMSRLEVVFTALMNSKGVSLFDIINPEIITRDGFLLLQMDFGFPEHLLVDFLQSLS
Protocol: Potassium bromide (KBr) was added to the plasma of healthy subjects (40 ml) to adjust specific gravity to d=1.125 g/ml. Density gradient centrifugation (227,000×g, 4° C., 17 hours) was conducted to obtain a fraction with specific gravity d>1.125 g/ml (HDL3 fraction). The fraction thus obtained was dialyzed against a PBS solution [10 mM Na2HPO4/10 mM NaH2PO4/0.15 M NaCl/1 mM EDTA (pH 7.4)]. Then, tritium-labeled cholesterol (10 nM) (50.3 Ci/mM) was dissolved in 95% ethanol and added gradually to the above HDL3 fraction under stirring. The solution was incubated for 18 hours at 37° C. [Tritium-labeled cholesterol was esterified by this procedure by the action of lecithin:cholesterol acyltransferase (LCAT) present on the surface of HDL3 and taken up into the interior of HDL3 as tritium-labeled cholesterylester ([^3H]CE)]. After incubation, KBr was added and specific gravity was adjusted to d=1.21 g/ml. Density gradient centrifugation (227,000×g, 4° C., 17 hours) was conducted and the fraction with d<1.21 g/ml was harvested. The fraction thus obtained was dialyzed against the above PBS solution to obtain HDL3 that took up [^3H]CE ([^3H]CE-HDL3, specific gravity: 1.125<d<1.21, specific activity: 101,000 dpm/nM), which served as donor lipoprotein.
Physiological saline (specific gravity d=1.006 g/ml) was layered upon the plasma of healthy subjects (100 ml). Density gradient centrifugation (227,000×g, 4° C., 4 hours) was conducted and the fraction with specific gravity d>1.006 g/ml was harvested. KBr was added to the fraction thus obtained to adjust specific gravity to d=1.063 g/ml and density gradient centrifugation (227,000×g, 4° C., 20 hours) was conducted to harvest the fraction with specific gravity […]. The thus-obtained fraction was dialyzed against the above PBS solution to obtain fractions containing IDL and LDL (specific gravity: 1.006<d<1.063), which served as acceptor lipoprotein.
Samples were suspended in a 0.5% methylcellulose solution and administered orally using a plastic probe to transgenic mice having introduced human CETP gene (hereafter referred to as mice; prepared using the method described in Japanese Patent Application No. Hei 8-130660), which had been fasted overnight. Blood was collected before administration, and 6 hours after administration CETP activity in the plasma was determined using the following method.
Donor lipoprotein ([^3H]CE-HDL3, containing 0.21 μg cholesterol) obtained in the above (1), acceptor lipoprotein obtained in the above (2) (containing 21 μg of cholesterol), and 0.9 μl of mice plasma were added to microtubes. A total volume was adjusted to 600 μl/tube with a TBS solution [10 mM Tris/0.15 M NaCl (pH 7.4)]. The microtubes were incubated for 15 hours at 37° C. or 4° C. Then, an ice-cooled TBS solution (400 μl/tube) and a 0.3% dextran sulfate solution (100 μl/tube) containing 0.15 M magnesium chloride were added to the microtubes and mixed well. After allowing the microtubes to stand for 30 minutes at 4° C., centrifugation (8,000 rpm, 4° C., 10 minutes) was carried out and radioactivity of the resulting supernatant (HDL fraction) was determined with a scintillation counter.

CETP [2] = biological target: T1, CETP; assay: In vitro CETP activity inhibitory effect in whole plasma; type: biochemical; set-up: Plasma containing [^3H]CE-HDL3 (600,000 dpm/ml) was prepared by adding donor lipoprotein obtained in the above (1) to plasma from healthy subjects; from tissue; host or cells: whole plasma of healthy subjects; settings: plasma from healthy subjects containing [3H]CE-HDL3, incubated 4 hours at 37° C.; read-out: CETP activity inhibition in whole plasma IC50
Summary of the method: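 HDL3 was labelled with tritiated cholesterol (10 nM) for 18 h at 37° C in PBS with EDTA (pH 7.4). Test samples were in 1:1 N-methylpyrrolidone/PEG 400 and assayed in whole plasma. IC50 was calculated from % inhibition of CETP activity.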

| inhibition at 10 mg/kg (CETP [1]; 10 mg/kg) [%] | inhibition at 30 mg/kg (CETP [1]) [%] | pIC50 (CETP [2]) | Compound |
| --- | --- | --- | --- |
| 14 | 26 | 4.22 | CC(C)CCC1(C(=O)Nc2cc(F)ccc2SC(=O)C(C)(C)C)CCCCC1 [Example 79] |
|  | 12 | 5.22 | CC(C)CCC1(C(=O)Nc2cc(F)c(F)cc2SC(=O)C(C)(C)C)CCCCC1 [Example 80] |
|  | 10 | 4.68 | CC(C)CCC1(C(=O)Nc2ccc(F)cc2SC(=O)C(C)(C)C)CCCCC1 [Example 81] |
